Experimental data reported in patent US20260364072A1, “METHODS FOR PROMOTING EXPANSION OF HUMAN CD34+ CELLS IN VIVO AND FOR PROMOTING NEURAL REGENERATION” (THE REGENTS OF THE UNIVERSITY OF CALIFORNIA, priority 2023, published 2026).

Experiments:
[1] = tested on: ADAR1, CD44v3, MCL1-L; test: LSC-associated transcripts and ADAR1 activity after treatment or ADAR1 shRNA knockdown; assay type: cell-based, human; conditions: phenocopied ADAR1 shRNA knockdown
Excerpt: For lentivirus-mediated knockdown of human ADAR1 in ADAR1 activation and RNA editing biomarker studies of the nanoluc-GFP reporter and endogenous transcripts, human leukemia cells were stably transduced with the lentiviral shRNA vectors targeting ADAR1 (shADAR1) or scrambled control (shCtrl) to ablate endogenous ADAR1 expression. The shRNA plasmids targeting ADAR1 (shADAR1) as well as the scrambled control (shCtrl) were purchased from VectorBuilder (Chicago, IL) (shCtrl: […] (SEQ ID NO:3) and shADAR1: […]) (SEQ ID NO:4). […] Viral titers were assessed by qRT-PCR and transduction efficiency was tested in 293T cells. […]
For quantitative analysis of splice isoform expression, RNA editing rates, and whole gene expression by qRT-PCR, cells or tissue fragments were harvested in RNA lysis buffer and total RNA was extracted using RNeasy mini or micro extraction kits (QIAGEN, Germantown, MD) following the manufacturer's protocol including a DNase incubation step to digest any trace genomic DNA present. Levels of ADAR1 variants and LSC-specific transcripts were quantified by qRT-PCR as previously described.^14 RNA-editing site-specific qRT-PCR (RESSqPCR) was performed for variants in AZIN1 transcripts.^53 Additional species-specific primers were also designed to quantify intron retention rates in cells treated with Rebecsinib as a biomarker of response to RNA splicing modulation. […]

[2] = tested on: KG-1a, MOLM-13 and HL-60 cells (SF3B family members, PTK2B-202); test: Splice isoform biomarker qRT-PCR in human AML cell lines; assay type: cell-based; conditions: 1 μM, 4 hr
Protocol: For quantitative analysis of splice isoform expression, RNA editing rates, and whole gene expression by qRT-PCR, cells or tissue fragments were harvested in RNA lysis buffer and total RNA was extracted using RNeasy mini or micro extraction kits (QIAGEN, Germantown, MD) following the manufacturer's protocol including a DNase incubation step to digest any trace genomic DNA present. Levels of ADAR1 variants and LSC-specific transcripts were quantified by qRT-PCR as previously described.^14 RNA-editing site-specific qRT-PCR (RESSqPCR) was performed for variants in AZIN1 transcripts.^53 Additional species-specific primers were also designed to quantify intron retention rates in cells treated with Rebecsinib as a biomarker of response to RNA splicing modulation. Specifically, for the two-step SYBR-green based assays, as previously described,^7,14,53 100-1000 ng of RNA were subjected to cDNA synthesis using the SUPERSCRIPT III™ (ThermoFisher Scientific) kit followed by qRT-PCR using SYBR GreenER (ThermoFisher Scientific) master mix according to the manufacturer's recommended procedures. qRT-PCR was performed using SYBR GREENER SUPER MIX™ (Life Technologies) on BioRad iQ5™, C1000 TOUCH™, or BioRad CFX384™ instruments. Human splice isoform-specific, RNA editing site-specific qPCR (RESSqPCR)^53. Primer sets that have not been previously published were designed and tested for efficiency followed by analyses in samples exposed to Rebecsinib, with species-specific HPRT primers used as controls. […] Relative mRNA expression values were calculated using the 2^−ΔCT method, with normalization to untreated or vehicle-treated controls.^54
For multi-species biomarker development and transcript variant-specific qRT-PCR experiments, human AML cell lines KG-1a, MOLM-13, and HL-60, and rat leukemia cells RBL-1 were grown to confluence and treated with 1 μM Rebecsinib for 4 hr. Cells were collected and lysed in Qiagen RNA lysis buffer, and analyzed using the species-specific primers and qRT-PCR procedures described above.

[3] = Rat single-dose toxicokinetic study; assay type: in vivo, Sprague Dawley rats; conditions: IV bolus; for Tmax / half-life: plasma
Protocol: Pre-IND PD and toxicokinetic (TK) studies (FIG. 4D) were enabled by scalable Rebecsinib synthesis^34 and development of an optimized formulation for in vivo biodistribution (5% w/v EtOH, 5% w/v Kolliphor HS15 in 0.9% Sodium Chloride). In PK studies, Rebecsinib was detectable in rat, rabbit, and non-human primate (NHP) plasma following IV bolus administration. In rat TK studies, Rebecsinib was quantifiable up to 1-hour post-dose at 1 mg/kg and up to 4 hours post-dose at 3, 5, and 8 mg/kg (FIG. 4E). […] Rebecsinib T1/2 values were 0.342, 0.447, 0.313, and 0.530 hours at 1, 3, 5, and 8 mg/kg, respectively. […] Following 3, 10, and 20 mg/kg boluses, Rebecsinib was quantifiable in plasma 1 hour post-dose and could be detected up to 8 hours post-dosing with 40 mg/kg (FIG. 4F). […] Following 3, 10, 15, and 20 mg/kg of Rebecsinib, quantifiable plasma concentrations of Rebecsinib were observed through 8 hrs post-dose (FIG. 4G).
(FIG. 29D) Schematic diagram outlining multispecies toxicokinetic (TK) and pharmacodynamic studies in mammalian species treated in vivo with a single dose of Rebecsinib. Toxicokinetic analyses were performed in rats (n=6 per sex, per group), rabbits (n=2 per sex, per group), and non-human primates (NHPs, n=1 per sex, per group) and pharmacodynamic splice isoform quantification studies were performed in peripheral blood mononuclear cells (PBMCs) from NHP.
(FIG. 29E, FIG. 29F) For toxicokinetic analyses, rats (FIG. 29E) and rabbits (FIG. 29F) were given a single injection of Rebecsinib at 1-40 mg/kg, or vehicle control, and blood samples were drawn at regular intervals to determine plasma concentrations of the compound over 8 hr after treatment.
Single-dose TK studies were performed in Sprague Dawley rats (Charles River Labs, South San Francisco, CA), New Zealand white rabbits (BASi/Inotiv, West Lafayette, IN), and cynomolgus monkeys (BASi/Inotiv). Rat and rabbit studies included toxicology analyses, quantification of plasma levels of Rebecsinib, and necropsies to evaluate organ integrity after treatment. For NHP studies, health and ophthalmological evaluations were performed before and after dosing with Rebecsinib, and blood samples were collected for quantification of plasma levels of Rebecsinib and biomarker studies in PBMCs from treated and control animals. All monkeys were returned to the animal colony after the end of the observation period. Toxicokinetic values including mean plasma concentrations and t1/2 values were calculated according to CRO-approved protocols (Charles River and BASi).

[4] = tested on: ADAR1p150 splice isoform; leukemia stem cells; conditions: cited from earlier work

Compound: CC[C@H](OC)[C@@H](C)[C@H]1O[C@@H]1[C@@H](O)[C@H](C)/C=C/C=C(\C)[C@H]1OC(=O)C[C@H](O)CC[C@@](C)(O)[C@@H](OC(C)=O)/C=C/[C@@H]1C [Rebecsinib]
- ADAR1 activity [1]: repression of ADAR1 activity
- expression of LSC-associated transcripts, such as CD44v3 and MCL1-L [1]: reduced expression of LSC-associated transcripts
- expression of PTK2B-202 isoform [2]: Decreased expression of the LSC-related PTK2B-202 isoform
- intronic retention of SF3B family members ([2]; KG-1a, MOLM-13 and HL-60): significant upregulation of intronic retention of SF3B family members
- SF3B3 intron retention response ([2]; across all cell lines): most potent and consistent response
- last time quantifiable in plasma ([3]; 1 mg/kg): up to 1 hour
- last time quantifiable in plasma ([3]; 3 mg/kg): up to 4 hours
- last time quantifiable in plasma ([3]; 5 mg/kg): up to 4 hours
- last time quantifiable in plasma ([3]; 8 mg/kg): up to 4 hours
- Tmax ([3]; 1 mg/kg): ≤ 4.98 min
- half-life ([3]; 1 mg/kg): 20.5 min
- Tmax ([3]; 3 mg/kg): ≤ 10 min
- half-life ([3]; 3 mg/kg): 26.8 min
- Tmax ([3]; 5 mg/kg): ≤ 4.98 min
- half-life ([3]; 5 mg/kg): 18.8 min
- Tmax ([3]; 8 mg/kg): ≤ 10 min
- half-life ([3]; 8 mg/kg): 31.8 min
- activation of the interferon-inducible ADAR1p150 splice isoform [4]: inhibit activation of the interferon-inducible ADAR1p150 splice isoform
- malignant splice isoform switching [4]: reverse malignant splice isoform switching
- leukemia stem cell (LSC) maintenance ([4]; in vitro and in preclinical patient-derived AML mouse models): significantly reduce leukemia stem cell (LSC) maintenance
